Our source for the pest or weed control and inhibition of growth values is patent publication US11155517B2, “4-substituted phenylamine derivatives and their use to protect crops by fighting undesired phytopathogenic micoorganisms” (PI INDUSTRIES LTD., priority 2016, dated 2021).

One test concerns Botrytis cinera. Description: Greenhouse Botrytis cinera test in tomato, preventive. The test is classed as in vivo. Particulars: 24 h, plants sprayed one day before inoculation, read-out: Efficacy (% control), disease severity vs untreated check.
A further test has as its system Colletotrichum capsici. The test is described as follows: Colletotrichum capsici (anthracnose) in vitro test, radial growth on Potato Dextrose Agar. It counts as cell-based. Particulars: Colletotrichum truncatum, 168 h; 300 ppm; seven days, 25° C.; read-out: % control compared to the untreated check (radial growth).
For another test, the system named is Botrytis cinerea. The test is described as follows: Botrytis cinerea (gray mold) in vitro test, radial growth on Potato Dextrose Agar. The test is classed as cell-based. Particulars: 168 h, 300 ppm, seven days, 22° C., read-out: % (control) compared to the untreated check (radial growth).
The subject of a further test is Pyricularia oryzae. Description: microbe, parasite or virus in culture. It counts as cell-based. Particulars: 168 h, read-out: % control compared to the untreated check (radial growth).
The next test has as its system Alternaria solani. The test is described as follows: Alternaria solani (early blight of tomato/potato) in vitro test, radial growth on Potato Dextrose Agar. It counts as cell-based. The note with it: 168 h, 300 ppm, seven days, 25° C., read-out: % control compared to the untreated check (radial growth).
A further test has as its system Rhizoctonia solani. The test is described as follows: Rhizoctonia solani (rice sheath blight/potato black scurf) in vitro test, radial growth on Potato Dextrose Agar. The test is classed as cell-based. The note with it: 168 h, 300 ppm, seven days, 25° C., read-out: % control compared to the untreated check (radial growth).
The subject of the next test is Septoria lycopersici. The test is described as follows: Septoria lycopersici (leaf spot of tomato) in vitro test, radial growth on Potato Dextrose Agar. The test is classed as cell-based. Particulars: 168 h, seven days, 25° C., read-out: % control compared to the untreated check (radial growth).
The subject of a further test is Fusarium culmorum. Description: Fusarium culmorum (foot rot of cereals) in vitro test, radial growth on Potato Dextrose Agar. It counts as cell-based. The note with it: Fusarium culmorum, 168 h, read-out: % control compared to the untreated check (radial growth).

Consider `Cc1cc(N=CN(C#N)CC#N)c(C)cc1Cc1ccccc1Cl` [Compound 90, N′-(4-(2-chlorobenzyl)-2,5-dimethylphenyl)-N-cyano-N-(cyanomethyl)formimidamide], for which the pest or weed control at 500 ppm in the test with Botrytis cinera was in the range of 70 to 100%.
`CCN(C)C=Nc1cc(C)c(Cc2c(F)cccc2Cl)cc1Cl` [Compound 184, N′-(2-chloro-4-(2-chloro-6-fluorobenzyl)-5-methylphenyl)-N-ethyl-N-methylformimidamide]: the inhibition of growth at 300 ppm in the test with Colletotrichum capsici was more than 80%; in the test on Botrytis cinerea, more than 80%; in the test with Pyricularia oryzae, more than 75%; in the test with Alternaria solani it was more than 75%; in the test with Rhizoctonia solani it was more than 80%. Moreover, in the test on Botrytis cinera, the pest or weed control at 500 ppm fell in the range of 70 to 100%.
As for `CCN(C)C=Nc1c(C)cc(Cc2ccc(Br)cc2)c(C)c1Br` [Compound 10, N′-(2-bromo-4-(4-bromobenzyl)-3,6-dimethylphenyl)-N-ethyl-N-methylformimidamide], the inhibition of growth at 300 ppm in the test with Colletotrichum capsici is more than 80%; in the test on Botrytis cinerea, more than 80%; in the test on Pyricularia oryzae, more than 75%; with Alternaria solani it was more than 75%; in the test with Rhizoctonia solani, more than 80%. The pest or weed control at 500 ppm in the test with Botrytis cinera lay within 70 to 100%.
Regarding `CCN(C)C=Nc1cc(C)c(Cc2cc(C)cc(F)c2)cc1C` [Compound 200, N-ethyl-N′-(4-(3-fluoro-5-methylbenzyl)-2,5-dimethylphenyl)-N-methylformimidamide], the inhibition of growth at 300 ppm is more than 70% in the test with Septoria lycopersici; 75% with Fusarium culmorum; more than 80% in the test with Colletotrichum capsici; more than 80% in the test on Botrytis cinerea; more than 75% with Pyricularia oryzae; more than 75% with Alternaria solani. For the same molecule, in the test with Rhizoctonia solani, the inhibition of growth at 300 ppm was more than 80%.
In the case of `CCN(C)C=Nc1cc(C)c(Cc2ccc(OC(F)(F)F)cc2)cc1C` [Compound 117, N′-(2,5-dimethyl-4-(4-(trifluoromethoxy)benzyl)phenyl)-N-ethyl-N-methylformimidamide], the inhibition of growth at 300 ppm with Septoria lycopersici is more than 70%; in the test on Fusarium culmorum it was 75%; in the test with Colletotrichum capsici, more than 80%; in the test with Botrytis cinerea it was more than 80%; in the test with Pyricularia oryzae it was more than 75%; in the test with Alternaria solani, more than 75%. The inhibition of growth at 300 ppm in the test on Rhizoctonia solani is more than 80%.
For `CCN(C)C=Nc1cc(C)c(Cc2cc(F)cc(C(F)(F)F)c2)cc1C` [Compound 52, N-ethyl-N′-(4-(3-fluoro-5-(trifluoromethyl)benzyl)-2,5-dimethylphenyl)-N-methylformimidamide], the inhibition of growth at 300 ppm is more than 70% in the test on Septoria lycopersici; 75% in the test with Fusarium culmorum; more than 80% in the test with Colletotrichum capsici; more than 80% with Botrytis cinerea; more than 75% in the test on Pyricularia oryzae; more than 75% in the test with Alternaria solani. The inhibition of growth at 300 ppm with Rhizoctonia solani was more than 80%.
For the molecule `CCN(C)C=Nc1cc(C)c(Cc2cccc(C)c2)cc1F` [Compound 210, N-ethyl-N′-(2-fluoro-5-methyl-4-(3-methylbenzyl)phenyl)-N-methylformimidamide], the inhibition of growth at 300 ppm in the test on Septoria lycopersici is more than 70%; with Fusarium culmorum, 75%; with Colletotrichum capsici, more than 80%; with Botrytis cinerea, more than 80%; in the test on Pyricularia oryzae, more than 75%; with Alternaria solani, more than 75%. Moreover, in the test on Rhizoctonia solani, the inhibition of growth at 300 ppm is more than 80%.
As for `Cc1cc(N=CN2CCCCC2)c(C)cc1Cc1ccc(F)cc1` [Compound 60, N-(4-(4-fluorobenzyl)-2,5-dimethylphenyl)-1-(piperidin-1-yl)methanimine], the inhibition of growth at 300 ppm is more than 70% with Septoria lycopersici; 75% in the test on Fusarium culmorum; more than 80% in the test with Colletotrichum capsici; more than 80% in the test on Botrytis cinerea; more than 75% in the test with Pyricularia oryzae; more than 75% with Alternaria solani. In addition, the inhibition of growth at 300 ppm in the test with Rhizoctonia solani is more than 80%.
For the molecule `CCN(C)C=Nc1cc(C)c(Cc2cccc(OC)c2)cc1C` [Compound 45, N-ethyl-N′-(4-(3-methoxybenzyl)-2,5-dimethylphenyl)-N-methylformimidamide], the inhibition of growth at 300 ppm was more than 70% in the test on Septoria lycopersici; 75% with Fusarium culmorum; more than 80% in the test with Colletotrichum capsici; more than 80% in the test with Botrytis cinerea; more than 75% in the test with Pyricularia oryzae; more than 75% with Alternaria solani. Moreover, the inhibition of growth at 300 ppm in the test on Rhizoctonia solani was more than 80%.
In the case of `CCN(C)C=Nc1cc(C)c(Cc2ccc(C)cc2)cc1C1CC1` [Compound 222, N′-(2-cyclopropyl-5-methyl-4-(4-methylbenzyl)phenyl)-N-ethyl-N-methylformimidamide], the inhibition of growth at 300 ppm in the test on Septoria lycopersici is more than 70%; in the test on Fusarium culmorum, 75%; in the test on Colletotrichum capsici it was more than 80%; in the test with Botrytis cinerea it was more than 80%; in the test on Pyricularia oryzae it was more than 75%; with Alternaria solani it was more than 75%. Moreover, the inhibition of growth at 300 ppm with Rhizoctonia solani is more than 80%.
Regarding `CCN(C)C=Nc1cc(C)c(Cc2cccc(F)c2)cc1C1CC1` [Compound 197, N′-(2-cyclopropyl-4-(3-fluorobenzyl)-5-methylphenyl)-N-ethyl-N-methylformimidamide], the inhibition of growth at 300 ppm in the test with Septoria lycopersici was more than 70%; in the test with Fusarium culmorum, 75%; with Colletotrichum capsici, more than 80%; in the test on Botrytis cinerea, more than 80%; with Pyricularia oryzae, more than 75%; in the test on Alternaria solani it was more than 75%. The inhibition of growth at 300 ppm in the test on Rhizoctonia solani is more than 80%.
For `CCN(C)C=Nc1cc(C)c(Cc2cccc(Cl)c2F)cc1C` [Compound 118, N′-(4-(3-chloro-2-fluorobenzyl)-2,5-dimethylphenyl)-N-ethyl-N-methylformimidamide], the inhibition of growth at 300 ppm was more than 70% with Septoria lycopersici; 75% with Fusarium culmorum; more than 80% in the test with Colletotrichum capsici; more than 80% in the test with Botrytis cinerea; more than 75% in the test on Pyricularia oryzae; more than 75% in the test on Alternaria solani. Also, the inhibition of growth at 300 ppm in the test with Rhizoctonia solani was more than 80%.
With `CCN(C)C=Nc1cc(F)c(Cc2ccccc2F)cc1C` [Compound 185, N-ethyl-N′-(5-fluoro-4-(2-fluorobenzyl)-2-methylphenyl)-N-methylformimidamide], the inhibition of growth at 300 ppm with Septoria lycopersici was more than 70%; in the test with Fusarium culmorum it was 75%; in the test with Colletotrichum capsici it was more than 80%; in the test with Botrytis cinerea, more than 80%; with Pyricularia oryzae it was more than 75%; with Alternaria solani, more than 75%. Also, the inhibition of growth at 300 ppm in the test with Rhizoctonia solani was more than 80%.
For `CCN(C)C=Nc1cc(C)c(Cc2ccc(OC)cc2)cc1C` [Compound 54, N-ethyl-N′-(4-(4-methoxybenzyl)-2,5-dimethylphenyl)-N-methylformimidamide], the inhibition of growth at 300 ppm in the test with Septoria lycopersici is more than 70%; with Fusarium culmorum it was 75%; with Colletotrichum capsici it was more than 80%; in the test on Botrytis cinerea, more than 80%; with Pyricularia oryzae, more than 75%; with Alternaria solani, more than 75%. Further, the inhibition of growth at 300 ppm in the test with Rhizoctonia solani is more than 80%.
